Results published in patent publication US20190185896A1, “Stimulation of Regenerative Processes and Factors by Noble Gases” (NOBILIS THERAPEUTICS, INC., priority 2017, published 2019).

What was measured:
[1] = tested on: VEGF expression in fibroblasts; assay: VEGF expression in fibroblasts in vitro (immunofluorescence staining, western blotting); format: cell-based; settings: 75% Argon+25% O2, 24 h after treatment
[2] = tested on: a SMA expression in fibroblasts; assay: a-SMA expression in fibroblasts in vitro (immunofluorescence staining, western blotting); format: cell-based; settings: 75% Argon+25% O2, 10 ng/ml TGF, 72 h after treatment
Procedure: For in vitro fluorescence staining, cells were fixed in paraformaldehyde in 0.1 mol/l PBS solution. Cells were then incubated in 10% normal donkey serum in 0.1 mol/l PBS-Tween 20 and then incubated overnight with rabbit anti-angiopoietin-1 (1:200, Abcam), rabbit anti-TGF-β (1:200, Abcam), rabbit α-SMA (1:200, Abcam), followed by incubation with secondary antibody for 1 h. The slides were counterstained with nuclear dye DAPI and mounted with VECTASHIELD Mounting Medium (Vector Laboratories, Burlingame, Calif.). Sections were examined using an Olympus (Watford, UK) BX4 microscope.
HUVEC cell sample was stored in a −80° C. freezer until use. Cell samples were homogenized in ice-cold cell lysis buffer (20 mM Tris pH 7.5, 1% Triton X-100, 150 mM sodium chloride, 1% pyrophosphate, 1% betaglycophosphate, 1% NP-40, 0.1% SDS, 1 mM EDTA, 100 μg/ml phenylmethylsulfonyl fluoride, 1 μg/ml aprotinin). All homogenates were then centrifuged for 20 minutes at 15,000 rpm at 4° C. The supernatants were then extracted and protein quantification was carried out using a Bradford protein quantification assay kit (Bio-Rad, Hemel Hempstead, UK). […]
Membranes were then blocked in 5% non-fat powdered milk in TBST (50 mM Tris-HCl, 150 mM sodium chloride, 0.1% Tween 20, pH 7.4). […] Protein bands were then analyzed by densitometric quantification with Adobe PhotoShop (Adobe Systems, California, USA). […]

[3] = tested on: Angiopoietin 1; assay: Angiopoietin 1 staining of adult mouse cutaneous wounds; format: in vivo; settings: mouse cutaneous wounds, 3, 5, 8 day after wound, versus 75% N2
Source text: (§1) To create the excisional wounds, adult mice were anesthetized and the dorsal skin was shaved, after sanitizing with 70% ethanol, 4 full-thickness excisional wounds were generated with a 4-mm sterile punch (stiefel laboratories, Research Triangel Park, N.C.). On the dorsal skin using 4-mm-diameter dermal biopsy punches through the two layers of skin (Miltex Inc.).
(§2) The perfusion fixed skin tissue was cryosectioned (thickness 30 μm) and mounted on Superfrost Plus glass slides for the process of immunostaining analysis. The sections were initially incubated by a solution of 0.3% hydrogen peroxide in methanol to quench endogenous peroxidase before being exposed to a blocking solution of 0.1M phosphate buffered saline (PBS) containing 0.3% Triton X-100 and 3% natural sheep serum (NSS). Following this process of blocking the sections were incubated overnight at […] with rat polyclonal angiopoietin 1, VEGF, CD34, TGF-β (Abcam, UK). […]
(§3) (A) Angiopoietin 1 staining of adult mouse cutaneous wounds. […] Right lane: the intensity of Angiopoietin 1 was quantified by densitometry and normalized by 75% N2 at 3 day (mean±S.D, n=10), * p<0.05. […] The intensity of VEGF was quantified by densitometry and normalized by 75% N2 at 3 day (mean±S.D, n=10), * p<0.05.

[4] = tested on: VEGF; assay: VEGF staining of adult mouse cutaneous wounds; format: in vivo; settings: mouse cutaneous wounds, 3, 5, 8 day after wound, versus 75% N2
Source text: as §1, §2, §3

[5] = tested on: CD34; assay: Anti-CD34 immunohistochemistry of skin wound samples (new vessels in the wound area); format: in vivo, mice; settings: mouse skin wound samples, versus Nitrogen
Source text: as §1, §2
(§4) (A) Immunohistochemical analyses using anti-CD34 in skin wound samples from the mice treated with Nitrogen and Argon. […] The numbers of new vessels per a high-power microscopic field (×100) in 10 fields/a slide was counted. […] The intensity of TGFβ was quantified by densitometry and normalized by 75% N2 at 3 day (mean±S.D, n=10), * p<0.05.

[6] = tested on: TGF-β; assay: TGFβ staining of adult mouse cutaneous wounds; format: in vivo; settings: mouse cutaneous wounds, 3, 5, 8 day after wound, versus 75% N2
Source text: as §1, §2, §4

[7] = tested on: skin wound; assay: Skin wound healing in mice (excisional wounds); format: in vivo; settings: 75% Argon versus 75% nitrogen
Source text: as §1
A Macroscopic changes in skin wound site in a mice treated with 75% nitrogen or Argon. Day 0 picture was taken immediately after injury. Representative images from 2 individual animals in both groups are shown.

[8] = tested on: HUVECs; assay: Cell migration scratch assay; format: cell-based; settings: 75% argon for 2 hours, 16 hours post-exposure
Procedure: The following was adopted from a previous published protocol (Liang et al., 2007) to study the influence of argon on migration of HUVECs. Prior to assay, HUVECs in EGM were re-suspended in incomplete LSGS medium and seeded onto pre-coated 12-well plates at a density of 2-3×10^5/well. The plates were incubated at 37° C. with 5% CO2 overnight for the cells to adhere to the gelatin surface as well as to create a confluent monolayer. Use of low serum condition is crucial as it ensures survival and attachment of cells while minimising their proliferation.
Once 100% confluence was reached, the monolayers were scraped using a sterile p1000 pipette tip along the middle to create a straight-line “scratch”. After cell debris was washed off, the wells were replenished with fresh incomplete-LSGS medium.
The plates were then exposed to normal air, 75% argon or 75% nitrogen for 2 hours. From 0 to 16 hours post-exposure, wells were examined every 4 hours. […] The cells were then fixed with 4% paraformaldehyde (Fischer, UK) for 8 minutes and stained with 0.1% crystal violet (Sigma-Aldrich, UK) for 10 minutes. Images were taken as described in the previous section.

[9] = tested on: cerebral cortical neurons; settings: 75% concentration, in vitro, regardless of presence or absence of OGD injury; cited from earlier work

## [Ar] [Argon, argon]
[1]
  VEGF expression in vitro: enhanced
[2]
  a-SMA expression in vitro: enhanced
[3]
  Angiopoietin 1 expression in vivo: enhanced
[4]
  VEGF expression in vivo: enhanced
[5]
  CD34 in vivo (new vessels in the wound area): enhanced
[6]
  TGF-β in vivo: enhanced
[7]
  Skin wound healing: accelerated
[8]
  Scratch closure by migrating cells: completely closed
[9]
  Viability and proliferation of cerebral cortical neurons: potently enhanced
